Assay results: ChEMBL document CHEMBL5058643, “Data for DCP probe BI-2081” (2022)
Calls of active or inactive are those of the source. The calls are words filed in the database; no cut-off is given here.

Tests used:
[1] = target: D(4) dopamine receptor (Homo sapiens) (UniProt P21917); experiment: D4.2/H Eurofins SafetyScreen44 (BI); details: Compound concentration 10.0 uM
[2] = target: Sodium-dependent serotonin transporter (Homo sapiens) (UniProt P31645); experiment: 5HTTRANS/HU Eurofins SafetyScreen44 (BI); details: Compound concentration 10.0 uM
[3] = target: Peroxisome proliferator-activated receptor alpha (Homo sapiens) (UniProt Q07869); experiment: PPAR_ALPHA Eurofins SafetyScreen44 (BI); details: filed as agonist, Compound concentration 10.0 uM
[4] = target: Epidermal growth factor receptor (Homo sapiens) (UniProt P00533); experiment: EGF/HU Eurofins SafetyScreen44 (BI); details: Compound concentration 10.0 uM
[5] = target: Free fatty acid receptor 1 (Homo sapiens, UniProt O14842); experiment: FFAR1 biochemical assay
[6] = target: Substance-P receptor (Homo sapiens) (UniProt P25103); experiment: NK1/HU Eurofins SafetyScreen44 (BI); details: Compound concentration 10.0 uM
[7] = tested on: imidazoline I2 receptor (Rattus norvegicus); experiment: I2/CENTR/R Eurofins SafetyScreen44 (BI); details: Compound concentration 10.0 uM
[8] = target: T1, 5-hydroxytryptamine receptor 1A (Homo sapiens) (UniProt P08908); experiment: 5HT1A/HU Eurofins SafetyScreen44 (BI); details: Compound concentration 10.0 uM
T1 sequence (whole entry): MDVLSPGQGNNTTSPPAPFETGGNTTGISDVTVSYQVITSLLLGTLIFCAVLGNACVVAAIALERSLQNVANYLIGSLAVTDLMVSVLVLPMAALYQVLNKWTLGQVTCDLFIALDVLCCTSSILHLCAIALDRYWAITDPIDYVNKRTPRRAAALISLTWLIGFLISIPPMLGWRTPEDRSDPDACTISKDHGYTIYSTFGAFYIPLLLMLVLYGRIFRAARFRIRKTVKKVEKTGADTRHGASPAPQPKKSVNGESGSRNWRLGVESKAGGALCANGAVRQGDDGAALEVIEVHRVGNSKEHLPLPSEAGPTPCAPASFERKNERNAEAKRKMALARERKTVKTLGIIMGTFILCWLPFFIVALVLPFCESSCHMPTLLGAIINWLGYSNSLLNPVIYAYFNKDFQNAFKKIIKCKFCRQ

[9] = target: 5-hydroxytryptamine receptor 2B (Homo sapiens) (UniProt P41595); experiment: 5HT2B/HU Eurofins SafetyScreen44 (BI); details: Compound concentration 10.0 uM
[10] = target: Sodium-dependent dopamine transporter (Homo sapiens) (UniProt Q01959); experiment: DATRANS/H Eurofins SafetyScreen44 (BI); details: Compound concentration 10.0 uM
[11] = target: Kappa-type opioid receptor (Homo sapiens) (UniProt P41145); experiment: KAPPA/HU Eurofins SafetyScreen44 (BI); details: Compound concentration 10.0 uM
[12] = target: P2X purinoceptor (Oryctolagus cuniculus) (UniProt G1U3D6); experiment: P2X/RB Eurofins SafetyScreen44 (BI); details: Compound concentration 10.0 uM
[13] = target: Adenosine receptor A3 (Homo sapiens) (UniProt P0DMS8); experiment: A3/H Eurofins SafetyScreen44 (BI); details: Compound concentration 10.0 uM
[14] = target: Androgen receptor (Rattus norvegicus) (UniProt P15207); experiment: TESTOST/RA Eurofins SafetyScreen44 (BI); details: Compound concentration 10.0 uM
[15] = target: Protein kinase C alpha type (Mus musculus) (UniProt P20444); experiment: PHORBOLE/M Eurofins SafetyScreen44 (BI); details: Compound concentration 10.0 uM
[16] = target: Delta-type opioid receptor (Homo sapiens) (UniProt P41143); experiment: DELTA/HU Eurofins SafetyScreen44 (BI); details: Compound concentration 10.0 uM
[17] = target: Mu-type opioid receptor (Homo sapiens) (UniProt P35372); experiment: MU/HU Eurofins SafetyScreen44 (BI); details: Compound concentration 10.0 uM
[18] = target: T2, Alpha-1D adrenergic receptor (Homo sapiens) (UniProt P25100); experiment: ALPHA1D/H Eurofins SafetyScreen44 (BI); details: Compound concentration 10.0 uM
T2 sequence (whole entry): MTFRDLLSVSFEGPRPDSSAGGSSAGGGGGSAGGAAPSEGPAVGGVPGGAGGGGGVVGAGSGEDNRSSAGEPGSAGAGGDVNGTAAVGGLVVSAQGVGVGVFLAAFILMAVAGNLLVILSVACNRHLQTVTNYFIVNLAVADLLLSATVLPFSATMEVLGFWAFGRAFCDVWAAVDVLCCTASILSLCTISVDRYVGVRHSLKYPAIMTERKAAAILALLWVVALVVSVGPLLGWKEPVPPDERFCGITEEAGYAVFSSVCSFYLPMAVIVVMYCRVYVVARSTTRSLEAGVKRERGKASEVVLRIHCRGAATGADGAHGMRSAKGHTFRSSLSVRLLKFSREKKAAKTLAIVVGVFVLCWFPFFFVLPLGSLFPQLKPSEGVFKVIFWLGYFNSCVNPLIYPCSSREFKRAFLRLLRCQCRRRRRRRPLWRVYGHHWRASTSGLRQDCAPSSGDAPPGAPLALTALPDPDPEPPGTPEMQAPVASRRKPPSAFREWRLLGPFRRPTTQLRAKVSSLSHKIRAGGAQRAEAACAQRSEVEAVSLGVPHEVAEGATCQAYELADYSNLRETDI

[19] = target: Endothelin-1 receptor (Homo sapiens) (UniProt P25101); experiment: ETA/H Eurofins SafetyScreen44 (BI); details: Compound concentration 10.0 uM
[20] = target: Cannabinoid receptor 1 (Homo sapiens) (UniProt P21554); experiment: CB1(HU)_AGON Eurofins SafetyScreen44 (BI); details: filed as agonist; Compound concentration 10.0 uM
[21] = target: 5-hydroxytryptamine receptor 1B (Homo sapiens) (UniProt P28222); experiment: 5HT1B(H) Eurofins SafetyScreen44 (BI); details: filed as antagonist, Compound concentration 10.0 uM
[22] = target: Beta-2 adrenergic receptor (Homo sapiens) (UniProt P07550); details: Compound concentration 10.0 uM
[23] = target: Histamine H1 receptor (Homo sapiens) (UniProt P35367); experiment: H1/PYRIL/HS Eurofins SafetyScreen44 (BI); details: Compound concentration 10.0 uM
[24] = target: Glutamate receptor ionotropic, NMDA 2A (Rattus norvegicus) (UniProt Q00959); experiment: NMDA/R Eurofins SafetyScreen44 (BI); details: Compound concentration 10.0 uM
[25] = target: Sodium-dependent dopamine transporter (Homo sapiens) (UniProt Q01959); experiment: DATRANS/HUM Eurofins SafetyScreen44 (BI); details: Compound concentration 10.0 uM
[26] = target: Glucocorticoid receptor (Homo sapiens) (UniProt P04150); experiment: GCORTICOID/H Eurofins SafetyScreen44 (BI); details: Compound concentration 10.0 uM
[27] = target: Vasopressin V1a receptor (Homo sapiens) (UniProt P37288); experiment: V1A/HUM Eurofins SafetyScreen44 (BI); details: Compound concentration 10.0 uM
[28] = target: Angiotensin-converting enzyme (Homo sapiens) (UniProt P12821); experiment: ACE(HU_AMTCH400) Eurofins SafetyScreen44 (BI); details: Compound concentration 10.0 uM
[29] = target: Beta-1 adrenergic receptor (Homo sapiens) (UniProt P08588); experiment: BETA1/HUM Eurofins SafetyScreen44 (BI); details: Compound concentration 10.0 uM
[30] = target: Muscarinic acetylcholine receptor M4 (Homo sapiens) (UniProt P08173); details: Compound concentration 10.0 uM
Muscarinic acetylcholine receptor M4 (Homo sapiens), sequence (P08173 whole entry): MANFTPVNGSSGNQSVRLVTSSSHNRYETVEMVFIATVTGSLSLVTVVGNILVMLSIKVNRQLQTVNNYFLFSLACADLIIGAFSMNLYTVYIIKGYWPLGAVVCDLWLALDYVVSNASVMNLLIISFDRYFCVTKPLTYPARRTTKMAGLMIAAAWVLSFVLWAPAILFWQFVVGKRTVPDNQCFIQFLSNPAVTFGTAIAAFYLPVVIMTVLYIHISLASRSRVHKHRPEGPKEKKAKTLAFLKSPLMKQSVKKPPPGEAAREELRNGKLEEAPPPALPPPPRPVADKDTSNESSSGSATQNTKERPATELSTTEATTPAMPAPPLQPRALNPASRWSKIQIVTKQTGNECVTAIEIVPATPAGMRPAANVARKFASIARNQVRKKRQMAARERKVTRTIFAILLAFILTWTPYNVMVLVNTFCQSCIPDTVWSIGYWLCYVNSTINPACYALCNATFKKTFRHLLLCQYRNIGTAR

Sodium-dependent dopamine transporter (Homo sapiens), sequence (Q01959 whole entry): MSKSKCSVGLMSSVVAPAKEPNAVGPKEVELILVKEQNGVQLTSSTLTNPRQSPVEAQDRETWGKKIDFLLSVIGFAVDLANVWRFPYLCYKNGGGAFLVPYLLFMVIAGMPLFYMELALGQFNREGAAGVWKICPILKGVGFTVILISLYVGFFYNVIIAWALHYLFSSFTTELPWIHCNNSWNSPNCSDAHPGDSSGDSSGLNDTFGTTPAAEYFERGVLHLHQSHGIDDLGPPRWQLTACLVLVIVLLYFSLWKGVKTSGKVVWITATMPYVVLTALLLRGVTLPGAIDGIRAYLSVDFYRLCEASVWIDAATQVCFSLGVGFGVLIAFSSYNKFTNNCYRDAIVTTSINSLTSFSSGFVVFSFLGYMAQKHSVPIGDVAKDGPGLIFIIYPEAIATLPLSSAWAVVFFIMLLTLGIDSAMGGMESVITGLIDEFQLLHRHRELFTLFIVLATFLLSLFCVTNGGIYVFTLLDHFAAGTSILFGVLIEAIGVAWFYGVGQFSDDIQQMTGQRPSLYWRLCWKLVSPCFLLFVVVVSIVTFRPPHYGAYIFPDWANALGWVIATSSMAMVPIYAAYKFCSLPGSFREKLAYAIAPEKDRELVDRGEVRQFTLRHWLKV
Beta-2 adrenergic receptor (Homo sapiens), sequence (P07550 whole entry, looked up): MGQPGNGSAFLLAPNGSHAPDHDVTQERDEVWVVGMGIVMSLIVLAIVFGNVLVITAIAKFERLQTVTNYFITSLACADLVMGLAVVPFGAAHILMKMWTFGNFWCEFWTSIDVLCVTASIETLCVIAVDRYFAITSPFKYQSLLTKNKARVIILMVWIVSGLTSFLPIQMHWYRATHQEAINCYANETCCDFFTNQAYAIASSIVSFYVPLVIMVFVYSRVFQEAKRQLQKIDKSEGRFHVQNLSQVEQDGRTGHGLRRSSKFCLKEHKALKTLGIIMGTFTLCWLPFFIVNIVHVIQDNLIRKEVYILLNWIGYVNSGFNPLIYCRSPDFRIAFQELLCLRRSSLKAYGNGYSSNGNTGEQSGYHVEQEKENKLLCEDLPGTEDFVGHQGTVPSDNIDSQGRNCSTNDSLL
D(4) dopamine receptor (Homo sapiens), sequence (P21917 whole entry): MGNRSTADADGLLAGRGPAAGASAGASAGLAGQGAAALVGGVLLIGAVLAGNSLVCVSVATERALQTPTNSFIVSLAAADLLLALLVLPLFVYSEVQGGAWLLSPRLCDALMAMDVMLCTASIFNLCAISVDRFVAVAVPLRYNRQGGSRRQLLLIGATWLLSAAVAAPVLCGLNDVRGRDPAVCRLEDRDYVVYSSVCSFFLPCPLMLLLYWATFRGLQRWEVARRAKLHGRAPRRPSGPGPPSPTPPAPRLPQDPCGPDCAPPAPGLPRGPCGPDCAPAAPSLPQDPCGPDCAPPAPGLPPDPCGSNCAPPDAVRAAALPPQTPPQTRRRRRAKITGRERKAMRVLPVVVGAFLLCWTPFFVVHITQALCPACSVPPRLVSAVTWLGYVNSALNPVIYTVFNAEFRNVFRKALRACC
Substance-P receptor (Homo sapiens), sequence (P25103 whole entry): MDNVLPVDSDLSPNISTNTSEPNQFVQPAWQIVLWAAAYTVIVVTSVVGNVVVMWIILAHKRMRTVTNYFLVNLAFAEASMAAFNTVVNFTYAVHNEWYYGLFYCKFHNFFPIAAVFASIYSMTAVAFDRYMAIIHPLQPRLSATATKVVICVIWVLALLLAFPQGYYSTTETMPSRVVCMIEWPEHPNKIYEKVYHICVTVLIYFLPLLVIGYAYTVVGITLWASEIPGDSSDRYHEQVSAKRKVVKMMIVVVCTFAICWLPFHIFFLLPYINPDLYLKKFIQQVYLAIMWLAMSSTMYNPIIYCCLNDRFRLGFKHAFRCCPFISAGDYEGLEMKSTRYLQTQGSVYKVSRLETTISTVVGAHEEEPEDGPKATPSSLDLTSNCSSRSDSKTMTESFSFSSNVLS
P2X purinoceptor (Oryctolagus cuniculus), sequence (G1U3D6 as listed by the source): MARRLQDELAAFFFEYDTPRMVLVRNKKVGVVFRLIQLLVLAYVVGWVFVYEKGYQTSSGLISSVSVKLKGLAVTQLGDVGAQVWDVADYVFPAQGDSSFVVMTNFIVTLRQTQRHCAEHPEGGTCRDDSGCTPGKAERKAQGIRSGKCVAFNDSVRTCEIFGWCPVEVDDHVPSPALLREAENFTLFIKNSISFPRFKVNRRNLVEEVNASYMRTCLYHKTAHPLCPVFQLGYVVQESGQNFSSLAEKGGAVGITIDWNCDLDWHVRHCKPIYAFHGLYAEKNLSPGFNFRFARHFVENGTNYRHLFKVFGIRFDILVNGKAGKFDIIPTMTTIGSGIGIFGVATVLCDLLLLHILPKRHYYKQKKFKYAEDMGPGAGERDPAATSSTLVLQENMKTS
Delta-type opioid receptor (Homo sapiens), sequence (P41143 whole entry): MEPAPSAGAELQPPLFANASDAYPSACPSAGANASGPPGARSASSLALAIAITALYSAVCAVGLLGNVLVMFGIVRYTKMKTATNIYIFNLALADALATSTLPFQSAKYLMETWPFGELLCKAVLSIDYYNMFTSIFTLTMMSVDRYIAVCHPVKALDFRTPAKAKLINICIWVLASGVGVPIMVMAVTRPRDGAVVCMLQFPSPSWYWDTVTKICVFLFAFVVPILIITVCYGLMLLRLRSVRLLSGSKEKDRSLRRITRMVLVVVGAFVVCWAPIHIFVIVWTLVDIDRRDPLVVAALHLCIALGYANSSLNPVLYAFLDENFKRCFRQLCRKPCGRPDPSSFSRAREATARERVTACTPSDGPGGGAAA
5-hydroxytryptamine receptor 2B (Homo sapiens), sequence (P41595 whole entry): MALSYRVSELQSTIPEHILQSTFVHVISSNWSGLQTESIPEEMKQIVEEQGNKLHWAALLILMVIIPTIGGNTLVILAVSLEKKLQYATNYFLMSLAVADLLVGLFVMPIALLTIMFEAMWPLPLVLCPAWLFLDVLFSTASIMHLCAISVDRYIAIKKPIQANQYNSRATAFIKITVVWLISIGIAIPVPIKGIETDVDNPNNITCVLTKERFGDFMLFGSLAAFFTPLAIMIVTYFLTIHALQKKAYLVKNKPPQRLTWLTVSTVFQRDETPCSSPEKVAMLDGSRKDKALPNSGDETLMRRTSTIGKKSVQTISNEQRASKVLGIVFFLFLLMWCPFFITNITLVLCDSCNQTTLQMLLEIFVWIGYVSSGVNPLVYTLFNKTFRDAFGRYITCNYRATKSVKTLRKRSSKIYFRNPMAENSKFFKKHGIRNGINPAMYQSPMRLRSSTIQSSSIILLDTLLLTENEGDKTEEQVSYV
Vasopressin V1a receptor (Homo sapiens), sequence (P37288 whole entry, looked up): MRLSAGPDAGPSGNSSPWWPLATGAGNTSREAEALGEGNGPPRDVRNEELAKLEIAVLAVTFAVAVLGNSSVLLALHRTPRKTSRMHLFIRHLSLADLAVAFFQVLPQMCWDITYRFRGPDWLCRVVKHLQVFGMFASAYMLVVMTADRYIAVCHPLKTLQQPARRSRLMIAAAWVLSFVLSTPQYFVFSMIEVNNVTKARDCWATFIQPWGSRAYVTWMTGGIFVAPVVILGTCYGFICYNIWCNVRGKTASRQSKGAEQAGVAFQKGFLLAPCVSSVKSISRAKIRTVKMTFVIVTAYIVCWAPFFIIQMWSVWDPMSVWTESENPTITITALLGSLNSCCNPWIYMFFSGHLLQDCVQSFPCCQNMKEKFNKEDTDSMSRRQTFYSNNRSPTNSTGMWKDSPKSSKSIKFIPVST

Compound: Cc1cc(OCCC(C)(C)O)cc(C)c1-c1ccc(F)c2c1CC[C@H]2Oc1ccc2c(c1)OC[C@H]2CC(=O)O
- residual activity [1]: 99%
- residual activity [2]: 106%
- residual activity [3]: 119%
- residual activity [4]: 99%
- Ki [5]: 23 nM (active)
- residual activity [6]: 113%
- residual activity [7]: 86%
- residual activity [8]: 118%
- residual activity [9]: 82%
- residual activity [10]: 68%
- residual activity [11]: 106%
- residual activity [12]: 122%
- residual activity [13]: 100%
- residual activity [14]: 75%
- residual activity [15]: 84%
- residual activity [16]: 74%
- residual activity [17]: 76%
- residual activity [18]: 85%

Compound: COCCCS(=O)(=O)c1cc(C)c(-c2ccc(F)c3c2CC[C@H]3Oc2ccc3c(c2)OC[C@H]3CC(=O)O)c(C)c1
- residual activity [19]: 56%
- residual activity [20]: 102%
- residual activity [21]: 97%
- inhibition [22]: 2.56%
- residual activity [23]: 87%
- residual activity [24]: 87%
- residual activity [25]: 84%
- residual activity [26]: 43%
- residual activity [27]: 90%
- residual activity [28]: 99%
- residual activity [29]: 88%
- inhibition [30]: -8.43%
